Experimental data as given in patent US20090029968A1, “QUINAZOLINE DERIVATIVES USED AS INHIBITORS OF ERBB TYROSINE KINASE” (priority 2005, published 2009).

Experiments:
EGFR tyrosine kinase = target: T1, EGFR tyrosine kinase (Homo sapiens, UniProt P00533); assay: Test (a) protein tyrosine kinase phosphorylation assay, EGFR; type: biochemical; conditions: recombinant intracellular fragment, ATP at Km; read-out: IC50 Test (a): Inhibition of EGFR tyrosine kinase protein phosphorylation
T1 construct: Recombinant intracellular fragments of EGFR, erbB2 and erbB4; made in house; host or cells: baculovirus/Sf21 insect cells (cleared lysate used)
Protocol: (§1) a) Protein Tyrosine Kinase phosphorylation Assays
(§2) This test measures the ability of a test compound to inhibit the phosphorylation of a tyrosine containing polypeptide substrate by EGFR, erbB2 and erbB4 tyrosine kinase enzyme.
(§3) Recombinant intracellular fragments of EGFR, erbB2 and erbB4 (accession numbers X00588, X03363 and L07868 respectively) were cloned and expressed in the baculovirus/Sf21 system. […]
(§4) Constitutive kinase activity of these recombinant proteins was determined by their ability to phosphorylate a synthetic peptide (made up of a random co-polymer of Glutamic Acid, Alanine and Tyrosine in the ratio of 6:3:1). […]
(§5) The immobilised phospho-peptide product of the reaction was detected by immunological methods. […] After further washing, HRP activity in each well of the plate was measured […] using 22′-Azino-di-[3-ethylbenzthiazoline sulfonate (6)] diammonium salt crystals (ABTS™ from Roche) as a substrate.
(§6) Quantification of colour development and thus enzyme activity was achieved by the measurement of absorbance at 405 nm on a Molecular Devices ThermoMax microplate reader. Kinase inhibition for a given compound was expressed as an IC50 value. […] The range of phosphorylation was calculated from the positive (vehicle plus ATP) and negative (vehicle minus ATP) control values.

erbB2 tyrosine kinase = target: T2, erbB2 tyrosine kinase (Homo sapiens, UniProt P04626); assay: Test (a) protein tyrosine kinase phosphorylation assay, erbB2; type: biochemical; conditions: recombinant intracellular fragment, ATP at Km; read-out: IC50 Test (a): Inhibition of erbB2 tyrosine kinase protein phosphorylation
T2 construct: Recombinant intracellular fragments of EGFR, erbB2 and erbB4; made in house; host or cells: baculovirus/Sf21 insect cells (cleared lysate used)
Protocol: as §1, §2, §3, §4, §5, §6

BT474C cells = assay: Test (e) BT474C cell proliferation assay; type: cell-based; conditions: Homo sapiens, 96 h, four-day MTS endpoint, read-out: IC50 Test (e): Inhibition of proliferation of BT474C cells
Description: The BT-474 tumour cell line (human mammary carcinoma) was obtained from Dr Baselga (at Laboratorio Recerca Oncologica, Paseo Vall D'Hebron 119-129, Barcelona 08035, Spain). This cell line was subcloned and a certain population (hereinafter referred to as “BT474C”) was obtained.
e) BT474C Cell Proliferation Assay
BT474C cells are a sub-cloned population of in vivo competent cells, as discussed above.
The BT474C assay is a MTS (3-(4,5-dimethylthiazol-2-yl)-5-(3-carboxymethoxyphenyl)-2-(4-sulfophenyl)-2H-tetrazolium, inner salt—Promega G1111) endpoint-based cell proliferation assay, which measures the ability of a test compound to inhibit the proliferation of cells over a four-day period. […] Cell density is measured using a haemocytometer and viability is calculated using Trypan Blue solution before being further diluted in Assay Medium and seeded at a density of 1×10^4 cells per well (in 100 ul) into clear bottomed 96 well plates (Costar 3598). […] The plate is read at 490 nm on a spectrophotometer.
Assay plates are left at 37° C. for 4 days and then treated with MTS solution (as above), which is converted to a soluble formazan product by active cells. After incubating the plates for 2 hours the reaction is stopped by the addition of 10% SDS (Sodium dodecyl sulphate) and the plates are read at 490 nm on a spectrophotometer giving absorbance values relative to the concentration of converted dye. […]

T2 sequence (P04626 676-1255 limits assumed): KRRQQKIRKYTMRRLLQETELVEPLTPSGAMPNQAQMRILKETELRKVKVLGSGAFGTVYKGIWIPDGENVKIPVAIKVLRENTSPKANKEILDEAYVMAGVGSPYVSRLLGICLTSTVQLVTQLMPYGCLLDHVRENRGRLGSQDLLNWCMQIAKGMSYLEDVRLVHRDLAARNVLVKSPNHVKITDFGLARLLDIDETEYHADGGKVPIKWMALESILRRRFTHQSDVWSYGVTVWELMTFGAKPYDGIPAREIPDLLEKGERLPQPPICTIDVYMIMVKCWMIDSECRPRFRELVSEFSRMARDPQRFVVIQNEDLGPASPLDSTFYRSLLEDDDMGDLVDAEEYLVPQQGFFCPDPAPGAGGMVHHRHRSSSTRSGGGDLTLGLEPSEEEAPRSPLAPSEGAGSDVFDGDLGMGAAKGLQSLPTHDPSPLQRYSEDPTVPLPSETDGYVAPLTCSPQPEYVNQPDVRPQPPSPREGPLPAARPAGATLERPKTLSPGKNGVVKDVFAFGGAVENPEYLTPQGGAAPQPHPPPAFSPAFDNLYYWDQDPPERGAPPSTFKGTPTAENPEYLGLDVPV
T1 sequence (P00533 669-1210 limits assumed): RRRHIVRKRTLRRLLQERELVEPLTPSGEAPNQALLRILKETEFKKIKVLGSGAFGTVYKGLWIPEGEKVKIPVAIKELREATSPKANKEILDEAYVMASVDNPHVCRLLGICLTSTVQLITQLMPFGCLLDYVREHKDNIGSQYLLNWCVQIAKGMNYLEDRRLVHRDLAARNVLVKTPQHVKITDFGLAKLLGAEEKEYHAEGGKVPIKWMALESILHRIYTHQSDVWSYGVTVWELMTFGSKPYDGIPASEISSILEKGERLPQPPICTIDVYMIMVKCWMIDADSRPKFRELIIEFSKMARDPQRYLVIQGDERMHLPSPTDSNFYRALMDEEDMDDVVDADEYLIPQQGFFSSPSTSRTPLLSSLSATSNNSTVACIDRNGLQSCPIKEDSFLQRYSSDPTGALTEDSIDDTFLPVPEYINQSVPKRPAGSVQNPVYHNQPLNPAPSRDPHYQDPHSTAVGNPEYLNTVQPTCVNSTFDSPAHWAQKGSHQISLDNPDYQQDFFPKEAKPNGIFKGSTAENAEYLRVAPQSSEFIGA

| IC50 (EGFR tyrosine kinase) [µM] | IC50 (erbB2 tyrosine kinase) [µM] | IC50 (BT474C cells) [µM] | SMILES |
| --- | --- | --- | --- |
| 0.333 | 0.015 | 0.179 | C[C@@H](Oc1cccc2ncnc(Nc3ccc(C(=O)N4CCCCCC4)c(Cl)c3)c12)C(=O)N(C)CCO [Example 1, (2R)-2-[(4-{[4-(azepan-1-ylcarbonyl)-3-chlorophenyl]amino}quinazolin-5-yl)oxy]-N-(2-hydroxyethyl)-N-methylpropanamide] |
| 0.869 | 0.022 | 0.857 | C[C@@H](Oc1cccc2ncnc(Nc3ccc(C(=O)N4CCCCC4)c(Cl)c3)c12)C(=O)N(C)CCO [Example 2, (2R)-2-[(4-{[3-chloro-4-(piperidin-1-ylcarbonyl)phenyl]amino}quinazolin-5-yl)oxy]-N-(2-hydroxyethyl)-N-methylpropanamide] |
